Assay results: the supplement of paper PMC10307832

Columns and labels:
Test in all cases: relative viability (nuclei count vs DMSO), 5 days (fraction); higher = more cells survive
NCI-H2405 = tested on: NCI-H2405
Procedure, shortened: (§1)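 One day after seeding in 1536-well plates, lung cancer cell lines were dosed by pin tool. Dosing was either single-drug or a fixed anchor-drug dose plus five library-drug doses (not always all listed) in √10 steps. After 5 days, nuclei were stained in one fix-and-stain step and counted on 4× images, and relative viability is the nuclei count of treated wells over that of vehicle wells, given as the median of duplicate plates.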

NCI-H838 = tested on: NCI-H838
Procedure, shortened: as §1

HCC-366 = tested on: HCC-366
Procedure, shortened: as §1

NCI-H2347 = tested on: NCI-H2347
Procedure, shortened: as §1

NCI-H727 = tested on: NCI-H727
Procedure, shortened: as §1

BEN = tested on: BEN
Procedure, shortened: as §1

NCI-H1666 = tested on: NCI-H1666
Procedure, shortened: as §1

201T = tested on: 201T
Procedure, shortened: as §1

UMC-11 = tested on: UMC-11
Procedure, shortened: as §1

NCI-H2009 = tested on: NCI-H2009
Procedure, shortened: as §1

HCC-44 = tested on: HCC-44
Procedure, shortened: as §1

ABC-1 = tested on: ABC-1
Procedure, shortened: as §1

NCI-H2228 = tested on: NCI-H2228
Procedure, shortened: as §1

NCI-H1355 = tested on: NCI-H1355
Procedure, shortened: as §1

NCI-H520 = tested on: NCI-H520
Procedure, shortened: as §1

HCC-78 = tested on: HCC-78
Procedure, shortened: as §1

LOU-NH91 = tested on: LOU-NH91
Procedure, shortened: as §1

SW 1573 = tested on: SW 1573
Procedure, shortened: as §1

NCI-H1734 = tested on: NCI-H1734
Procedure, shortened: as §1

NCI-H1650 = tested on: NCI-H1650
Procedure, shortened: as §1

NCI-H1755 = tested on: NCI-H1755
Procedure, shortened: as §1

O=C(O)CCCCC(CCSCc1ccccc1)SCc1ccccc1 (centres undefined) [CPI-613] + CC(C)C[C@H](NC(=O)[C@H](Cc1ccccc1)NC(=O)c1cnccn1)B(O)O [Bortezomib] (partner 0.002 µM)
relative viability (NCI-H2405; first compound 5 µM): 0.986
relative viability (NCI-H2405; first compound 15.81 µM): 0.961
relative viability (NCI-H2405; first compound 50 µM): 0.891
relative viability (NCI-H2405; first compound 158.11 µM): 0.913
relative viability (NCI-H2405; first compound 500 µM): 0.852
relative viability (NCI-H838; first compound 5 µM): 0.867
relative viability (NCI-H838; first compound 15.81 µM): 0.702
relative viability (NCI-H838; first compound 50 µM): 1.02
relative viability (NCI-H838; first compound 158.11 µM): 0.425
relative viability (NCI-H838; first compound 500 µM): 0.0658
relative viability (HCC-366; first compound 5 µM): 1.01
relative viability (HCC-366; first compound 15.81 µM): 0.957
relative viability (HCC-366; first compound 50 µM): 1.06
relative viability (HCC-366; first compound 158.11 µM): 0.391
relative viability (HCC-366; first compound 500 µM): 0.0068
relative viability (NCI-H2347; first compound 5 µM): 0.606
relative viability (NCI-H2347; first compound 15.81 µM): 0.833
relative viability (NCI-H2347; first compound 50 µM): 1.2
relative viability (NCI-H2347; first compound 500 µM): 1
relative viability (NCI-H727; first compound 5 µM): 0.806
relative viability (NCI-H727; first compound 15.81 µM): 0.782
relative viability (NCI-H727; first compound 50 µM): 0.792
relative viability (NCI-H727; first compound 158.11 µM): 0.665
relative viability (NCI-H727; first compound 500 µM): 0.0714
relative viability (BEN; first compound 5 µM): 0.819
relative viability (BEN; first compound 15.81 µM): 0.539
relative viability (BEN; first compound 50 µM): 0.633
relative viability (BEN; first compound 158.11 µM): 0.708
relative viability (BEN; first compound 500 µM): 0.658
relative viability (NCI-H1666; first compound 5 µM): 0.883
relative viability (NCI-H1666; first compound 15.81 µM): 0.603
relative viability (NCI-H1666; first compound 50 µM): 0.757
relative viability (NCI-H1666; first compound 158.11 µM): 0.175
relative viability (NCI-H1666; first compound 500 µM): 0.0891
relative viability (201T; first compound 5 µM): 1.08
relative viability (201T; first compound 15.81 µM): 1.03
relative viability (201T; first compound 50 µM): 1.09
relative viability (201T; first compound 158.11 µM): 0.995
relative viability (201T; first compound 500 µM): 0.949
relative viability (UMC-11; first compound 5 µM): 0.703
relative viability (UMC-11; first compound 15.81 µM): 0.496
relative viability (UMC-11; first compound 50 µM): 0.692
relative viability (UMC-11; first compound 158.11 µM): 0.641
relative viability (UMC-11; first compound 500 µM): 0.0673
relative viability (NCI-H2009; first compound 5 µM): 1.07
relative viability (NCI-H2009; first compound 15.81 µM): 0.942
relative viability (NCI-H2009; first compound 50 µM): 0.884
relative viability (NCI-H2009; first compound 158.11 µM): 0.0722
relative viability (NCI-H2009; first compound 500 µM): 0.0082
relative viability (HCC-44; first compound 5 µM): 0.878
relative viability (HCC-44; first compound 15.81 µM): 0.832
relative viability (HCC-44; first compound 50 µM): 0.913
relative viability (HCC-44; first compound 158.11 µM): 0.596
relative viability (HCC-44; first compound 500 µM): 0.0155
relative viability (ABC-1; first compound 5 µM): 0.305
relative viability (ABC-1; first compound 15.81 µM): 0.298
relative viability (ABC-1; first compound 50 µM): 0.302
relative viability (ABC-1; first compound 158.11 µM): 0.232
relative viability (ABC-1; first compound 500 µM): 0.242
relative viability (NCI-H2228; first compound 5 µM): 0.918
relative viability (NCI-H2228; first compound 15.81 µM): 1.04
relative viability (NCI-H2228; first compound 50 µM): 1.07
relative viability (NCI-H2228; first compound 158.11 µM): 0.217
relative viability (NCI-H2228; first compound 500 µM): 0.0287
relative viability (NCI-H1355; first compound 5 µM): 1.2
relative viability (NCI-H1355; first compound 15.81 µM): 1.22
relative viability (NCI-H1355; first compound 50 µM): 1.23
relative viability (NCI-H1355; first compound 158.11 µM): 0.646
relative viability (NCI-H1355; first compound 500 µM): 0.611
relative viability (NCI-H520; first compound 5 µM): 0.756
relative viability (NCI-H520; first compound 15.81 µM): 0.421
relative viability (NCI-H520; first compound 50 µM): 0.858
relative viability (NCI-H520; first compound 158.11 µM): 0.169
relative viability (NCI-H520; first compound 500 µM): 0.0871
relative viability (HCC-78; first compound 5 µM): 0.5
relative viability (HCC-78; first compound 15.81 µM): 0.397
relative viability (HCC-78; first compound 50 µM): 0.553
relative viability (HCC-78; first compound 158.11 µM): 0.445
relative viability (HCC-78; first compound 500 µM): 0.602
relative viability (LOU-NH91; first compound 5 µM): 0.49
relative viability (LOU-NH91; first compound 15.81 µM): 0.524
relative viability (LOU-NH91; first compound 50 µM): 0.393
relative viability (LOU-NH91; first compound 158.11 µM): 0.435
relative viability (LOU-NH91; first compound 500 µM): 0.467
relative viability (SW 1573; first compound 5 µM): 0.951
relative viability (SW 1573; first compound 15.81 µM): 0.985
relative viability (SW 1573; first compound 50 µM): 0.979
relative viability (SW 1573; first compound 158.11 µM): 0.884
relative viability (SW 1573; first compound 500 µM): 0.802
relative viability (NCI-H1734; first compound 5 µM): 0.858
relative viability (NCI-H1734; first compound 15.81 µM): 0.846
relative viability (NCI-H1734; first compound 50 µM): 0.877
relative viability (NCI-H1734; first compound 158.11 µM): 0.278
relative viability (NCI-H1734; first compound 500 µM): 0.101
relative viability (NCI-H1650; first compound 5 µM): 0.196
relative viability (NCI-H1650; first compound 15.81 µM): 0.204
relative viability (NCI-H1650; first compound 50 µM): 0.187
relative viability (NCI-H1650; first compound 158.11 µM): 0.0869
relative viability (NCI-H1650; first compound 500 µM): 0.0195
relative viability (NCI-H1755; first compound 5 µM): 0.959
relative viability (NCI-H1755; first compound 15.81 µM): 0.945
relative viability (NCI-H1755; first compound 50 µM): 0.875
relative viability (NCI-H1755; first compound 158.11 µM): 0.707
relative viability (NCI-H1755; first compound 500 µM): 0.114
